From PubChem BioAssay (NCI)
“And” between values parts separate entries of the source, which are not always exact repeats. Identical values can stand only once.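 Five concentrations, 48 hours, 96-well plates. GI50 = concentration required for 50% inhibition of growth. At the TGI there is no net growth.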

Columns and labels:
Assay in all cases: inhibition of tumour cell growth, NCI panel, 48 h
MOLT-4 leukemia = system: MOLT-4 leukemia
MDA-MB-231 breast = system: MDA-MB-231 breast
HL-60(TB) leukemia = system: HL-60(TB) leukemia
T-47D breast = system: T-47D breast
SNB-75 CNS = system: SNB-75 CNS
U251 CNS = system: U251 CNS
SR leukemia = system: SR leukemia
NCI/ADR-RES ovarian = system: NCI/ADR-RES ovarian
IGROV1 ovarian = system: IGROV1 ovarian
LOX IMVI melanoma = system: LOX IMVI melanoma

## Clc1nc(Cl)c2ncn(-c3ccccc3)c2n1
MOLT-4 leukemia
  GI50: 7.95 µM
  TGI: 52.3 µM
MDA-MB-231 breast
  GI50: 10.7 µM
  TGI: 24.5 µM
HL-60(TB) leukemia
  GI50: 1.96 µM
  TGI: 4.21 µM
T-47D breast
  GI50: 2.95 µM
  TGI: 8.63 µM
SNB-75 CNS
  GI50: 2.93 µM
  TGI: 13.9 µM
U251 CNS
  GI50: 1.8 µM
  TGI: 3.73 µM
SR leukemia
  GI50: 2.73 µM
  TGI: 9.51 µM
NCI/ADR-RES ovarian
  GI50: 1.85 µM
  TGI: 3.55 µM
IGROV1 ovarian
  GI50: 1.66 µM
  TGI: 3.38 µM
LOX IMVI melanoma
  GI50: 1.67 µM
  TGI: 3.28 µM

## CC(=O)OC1C(O)C(C)OC(OC2C(OC(=O)C3CCC4C(C3)OC3(CC(OC(=O)/C=C/c5ccccc5)C(C)CO3)C43CO3)OC(C)C(O)C2OC(C)=O)C1O (stereo unspecified)
MOLT-4 leukemia
  TGI: 0.032 µM
MDA-MB-231 breast
  TGI: 0.101 µM
HL-60(TB) leukemia
  TGI: 0.0192 µM
T-47D breast
  TGI: 0.0441 µM
SNB-75 CNS
  TGI: 0.0317 µM
U251 CNS
  TGI: 0.0493 µM
SR leukemia
  TGI: > 2.5 µM
NCI/ADR-RES ovarian
  TGI: > 2.5 µM
IGROV1 ovarian
  TGI: 0.0922 µM
LOX IMVI melanoma
  TGI: 0.0213 µM

## Cn1c2c(c3ccccc31)CCN1C[C@@H]3CCCC[C@H]3C[C@@H]21
MOLT-4 leukemia
  GI50: 5.55 µM
  TGI: > 100 µM
MDA-MB-231 breast
  GI50: 2.88 µM
  TGI: 8.66 µM
HL-60(TB) leukemia
  GI50: 2.27 µM
  TGI: > 28.4 µM
T-47D breast
  GI50: 14.1 µM
  TGI: > 100 µM
SNB-75 CNS
  GI50: 4.32 µM
  TGI: > 100 µM
U251 CNS
  GI50: 2.51 µM
  TGI: > 100 µM
SR leukemia
  GI50: 2.96 µM
  TGI: > 25.8 µM
NCI/ADR-RES ovarian
  GI50: 0.928 µM
  TGI: 9.7 µM
IGROV1 ovarian
  GI50: 3.45 µM
  TGI: > 54.6 µM
LOX IMVI melanoma
  GI50: 2.99 µM
  TGI: > 37.3 µM

## O=C(O)CN1C(=O)OC(c2ccccc2)C1=O (stereo unspecified)
MOLT-4 leukemia
  TGI: > 100 µM
MDA-MB-231 breast
  TGI: > 100 µM
HL-60(TB) leukemia
  TGI: > 100 µM
T-47D breast
  TGI: > 100 µM
SNB-75 CNS
  TGI: > 100 µM
U251 CNS
  TGI: > 100 µM
SR leukemia
  TGI: > 100 µM
NCI/ADR-RES ovarian
  TGI: > 100 µM
IGROV1 ovarian
  TGI: > 100 µM
LOX IMVI melanoma
  TGI: > 100 µM

## O=C1NC(c2ccc3ccccc3c2)Nc2ccccc21 (stereo unspecified)
MDA-MB-231 breast
  TGI: > 100 µM
HL-60(TB) leukemia
  TGI: > 100 µM
T-47D breast
  TGI: > 100 µM
SNB-75 CNS
  TGI: > 100 µM
U251 CNS
  TGI: > 100 µM
SR leukemia
  TGI: > 100 µM
NCI/ADR-RES ovarian
  TGI: > 100 µM
IGROV1 ovarian
  TGI: > 100 µM
LOX IMVI melanoma
  TGI: > 100 µM

## CC(C)(C)N1CC1CNC(=O)C(=O)NCC1CN1C(C)(C)C (stereo unspecified)
MOLT-4 leukemia
  TGI: 31.3 µM
MDA-MB-231 breast
  TGI: > 100 µM
HL-60(TB) leukemia
  TGI: 4.57 µM
T-47D breast
  TGI: 98.1 µM
SNB-75 CNS
  TGI: 13.2 µM
U251 CNS
  TGI: 7.29 µM
SR leukemia
  TGI: 13.3 µM
NCI/ADR-RES ovarian
  TGI: > 54 µM
IGROV1 ovarian
  TGI: 19.7 µM
LOX IMVI melanoma
  TGI: > 54.1 µM

## CC[C@]12C=CCN3CC[C@]4(C(=C(C(=O)OC)C1)Nc1cc5c(cc14)[C@@H]1[C@H](O5)[C@@H](O)[C@@]4(CC)CC(C(=O)OC)=C5Nc6ccccc6[C@@]56CCN1[C@@H]46)[C@@H]32
MOLT-4 leukemia
  GI50: 0.432 µM and 0.338 µM
  TGI: 25 µM and > 100 µM
MDA-MB-231 breast
  GI50: 0.155 µM and 0.395 µM
  TGI: 10.2 µM and 28.9 µM
HL-60(TB) leukemia
  GI50: 0.134 µM and 0.269 µM
  TGI: 9.05 µM and 1.91 µM
T-47D breast
  GI50: 0.335 µM
  TGI: > 100 µM
SNB-75 CNS
  GI50: 0.0335 µM and 0.161 µM
  TGI: 25 µM and 18.7 µM
U251 CNS
  GI50: 0.467 µM and 0.318 µM
SR leukemia
  GI50: 0.0922 µM and 0.146 µM
  TGI: 25 µM and > 100 µM
NCI/ADR-RES ovarian
  GI50: 0.825 µM and 0.714 µM
  TGI: 25 µM and > 100 µM
IGROV1 ovarian
  GI50: 0.156 µM and 0.253 µM
  TGI: 3.99 µM and 14 µM
LOX IMVI melanoma
  GI50: 0.39 µM
  TGI: 2.35 µM

## O=C(/C=C(/C=C/c1cccc2[nH]ccc12)OB(F)F)/C=C/c1cccc2[nH]ccc12
MOLT-4 leukemia
  GI50: 0.385 µM
  TGI: 3.72 µM
MDA-MB-231 breast
  GI50: 1.55 µM
  TGI: 5.19 µM
HL-60(TB) leukemia
  GI50: 0.641 µM
  TGI: 7.23 µM
T-47D breast
  GI50: 0.796 µM
  TGI: 26.8 µM
U251 CNS
  GI50: 0.469 µM
  TGI: 1.83 µM
SR leukemia
  GI50: 0.46 µM
  TGI: > 100 µM
NCI/ADR-RES ovarian
  GI50: 0.399 µM
  TGI: > 100 µM
IGROV1 ovarian
  GI50: 0.62 µM
  TGI: 6 µM
LOX IMVI melanoma
  GI50: 0.348 µM
  TGI: 1.02 µM

## COc1cc(-c2oc3c(OC)c(O)c(OC)c(O)c3c(=O)c2OC)cc(OC)c1OC
MOLT-4 leukemia
  TGI: > 100 µM
MDA-MB-231 breast
  TGI: > 100 µM
HL-60(TB) leukemia
  TGI: > 100 µM
T-47D breast
  TGI: > 100 µM
SNB-75 CNS
  TGI: 60.2 µM
U251 CNS
  TGI: > 100 µM
SR leukemia
  TGI: > 100 µM
NCI/ADR-RES ovarian
  TGI: > 100 µM
IGROV1 ovarian
  TGI: > 100 µM
LOX IMVI melanoma
  TGI: > 100 µM

## CCN1CCN(Cc2ccc(Nc3ncc(F)c(-c4cc(F)c5nc(C)n(C(C)C)c5c4)n3)nc2)CC1
MOLT-4 leukemia
  GI50: 0.156 µM
  TGI: 9.85 µM
MDA-MB-231 breast
  GI50: 6.29 µM
  TGI: 13 µM
HL-60(TB) leukemia
  GI50: 2.82 µM
  TGI: 13.2 µM
T-47D breast
  GI50: 19.3 µM
  TGI: 29 µM
SNB-75 CNS
  GI50: 0.094 µM
  TGI: 6.68 µM
U251 CNS
  GI50: 0.317 µM
  TGI: 11.6 µM
SR leukemia
  GI50: 0.101 µM
  TGI: 6.92 µM
NCI/ADR-RES ovarian
  GI50: 10.4 µM
  TGI: 26.2 µM
IGROV1 ovarian
  GI50: 2.03 µM
  TGI: 13.1 µM
LOX IMVI melanoma
  GI50: 1.41 µM
  TGI: 10.9 µM

## NS(=O)(=O)c1ccc(N=Nc2c(O)[nH]c3ccc(C(=O)NCCCn4ccnc4)cc23)cc1
MOLT-4 leukemia
  GI50: > 25 µM
  TGI: > 25 µM
MDA-MB-231 breast
  GI50: > 25 µM
  TGI: > 25 µM
HL-60(TB) leukemia
  GI50: > 25 µM
  TGI: > 25 µM
T-47D breast
  GI50: > 25 µM
  TGI: > 25 µM
SNB-75 CNS
  GI50: > 25 µM
  TGI: > 25 µM
U251 CNS
  GI50: > 25 µM
  TGI: > 25 µM
SR leukemia
  GI50: > 25 µM
  TGI: > 25 µM
NCI/ADR-RES ovarian
  GI50: > 25 µM
  TGI: > 25 µM
IGROV1 ovarian
  GI50: > 25 µM
  TGI: > 25 µM
LOX IMVI melanoma
  GI50: > 25 µM
  TGI: > 25 µM
